From patent publication US9688670B2, “Benzimidazole compounds and medical uses thereof” (Sumitomo Dainippon Pharma Co., Ltd., priority 2015, dated 2017)

Target: human SCN9A (Nav 1.7) (Homo sapiens, UniProt Q15858)
Experiment: Measurement of Na ion current (Nav 1.7 current) by automated patch clamp assay using cells stably-expressing human SCN9A
Assay type: cell-based
Conditions: concentration of each compound 10 μmol/L, holding potential inactivating 50% Nav 1.7 channel (around −60 mV), room temperature
Procedure: Measurement of Na Ion Current in Voltage-Dependent Na Channel Gene Expressed Cell Nav 1.7 current was measured by automated patch clamp assay using cells stably-expressing human SCN9A. Cells Stably-Expressing Human SCN9A Tetracycline-induced cells stably-expressing SCN9A were obtained from ChanTest Corporation. […] Next day, the Na ion current was measured by automated patch clamp assay. Electrophysiologic Measurement of Na Ion Current The Na ion current was measured by automated patch clamp assay using the following extracellular solution and intracellular solution. […] The control of the stimulating pulse and the data acquisition were carried out using EPC10 amplifier and Patch Master Software (HEKA). Data were sampled at 10 kHz, and low-pass filtered at 3 kHz. All the measurements were carried out at room temperature. […] The inhibitory rate of the Na ion current by the test compounds was calculated according to the following calculating formula with the peak current value generated by the depolarizing pulse. […] The inhibitory rate of Na ion current by each Example Compound was evaluated.

Chain of human SCN9A (Nav 1.7) (Q15858 whole entry): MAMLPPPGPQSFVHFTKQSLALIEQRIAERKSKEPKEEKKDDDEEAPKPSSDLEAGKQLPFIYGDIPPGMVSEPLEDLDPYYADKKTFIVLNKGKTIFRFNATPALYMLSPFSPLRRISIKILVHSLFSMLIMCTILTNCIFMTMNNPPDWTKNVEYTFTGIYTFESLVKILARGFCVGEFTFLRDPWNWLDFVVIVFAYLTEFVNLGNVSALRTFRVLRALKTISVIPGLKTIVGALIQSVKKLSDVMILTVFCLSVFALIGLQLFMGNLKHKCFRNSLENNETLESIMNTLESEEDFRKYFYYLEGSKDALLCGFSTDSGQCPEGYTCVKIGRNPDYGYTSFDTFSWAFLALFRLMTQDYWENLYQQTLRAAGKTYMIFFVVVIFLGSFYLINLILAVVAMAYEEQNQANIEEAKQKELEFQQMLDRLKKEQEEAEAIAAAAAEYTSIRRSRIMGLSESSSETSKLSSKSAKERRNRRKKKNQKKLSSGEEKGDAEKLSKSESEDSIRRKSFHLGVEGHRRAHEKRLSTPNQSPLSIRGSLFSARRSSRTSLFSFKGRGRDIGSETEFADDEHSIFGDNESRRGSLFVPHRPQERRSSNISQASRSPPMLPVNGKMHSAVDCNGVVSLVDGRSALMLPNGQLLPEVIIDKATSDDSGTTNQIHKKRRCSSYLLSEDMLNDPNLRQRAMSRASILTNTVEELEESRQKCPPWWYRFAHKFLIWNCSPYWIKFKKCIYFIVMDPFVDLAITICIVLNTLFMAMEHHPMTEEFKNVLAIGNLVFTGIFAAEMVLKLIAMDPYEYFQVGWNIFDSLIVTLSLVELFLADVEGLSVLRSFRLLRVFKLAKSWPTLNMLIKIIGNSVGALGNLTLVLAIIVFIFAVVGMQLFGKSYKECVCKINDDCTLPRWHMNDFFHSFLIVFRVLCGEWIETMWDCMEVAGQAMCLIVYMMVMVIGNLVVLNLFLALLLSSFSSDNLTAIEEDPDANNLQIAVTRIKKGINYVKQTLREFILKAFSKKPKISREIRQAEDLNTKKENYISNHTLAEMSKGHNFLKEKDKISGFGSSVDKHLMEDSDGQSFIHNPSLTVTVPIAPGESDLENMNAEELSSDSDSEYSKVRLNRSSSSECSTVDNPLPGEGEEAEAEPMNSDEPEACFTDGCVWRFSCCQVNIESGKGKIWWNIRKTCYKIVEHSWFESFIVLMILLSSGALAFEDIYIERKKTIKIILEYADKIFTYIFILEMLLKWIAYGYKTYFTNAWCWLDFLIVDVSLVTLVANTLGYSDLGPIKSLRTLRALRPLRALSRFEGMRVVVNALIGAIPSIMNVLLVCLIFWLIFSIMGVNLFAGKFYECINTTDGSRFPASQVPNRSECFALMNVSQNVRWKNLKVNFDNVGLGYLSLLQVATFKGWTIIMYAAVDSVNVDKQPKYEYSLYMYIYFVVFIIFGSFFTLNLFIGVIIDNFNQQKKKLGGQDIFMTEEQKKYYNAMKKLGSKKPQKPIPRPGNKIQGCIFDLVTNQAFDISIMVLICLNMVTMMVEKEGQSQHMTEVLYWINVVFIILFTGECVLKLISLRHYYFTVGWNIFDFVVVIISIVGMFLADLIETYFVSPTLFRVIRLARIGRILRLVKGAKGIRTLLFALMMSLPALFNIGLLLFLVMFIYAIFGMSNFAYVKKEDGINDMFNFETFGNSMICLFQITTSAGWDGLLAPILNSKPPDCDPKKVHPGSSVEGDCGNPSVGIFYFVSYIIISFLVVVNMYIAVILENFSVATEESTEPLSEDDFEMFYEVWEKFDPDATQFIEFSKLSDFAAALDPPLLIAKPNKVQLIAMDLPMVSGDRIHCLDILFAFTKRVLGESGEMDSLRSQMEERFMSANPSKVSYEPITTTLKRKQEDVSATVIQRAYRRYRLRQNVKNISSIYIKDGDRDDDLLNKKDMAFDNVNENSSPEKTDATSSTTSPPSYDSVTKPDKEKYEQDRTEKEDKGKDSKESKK

Structure (SMILES): OC1(Cn2cnc3ccc(Oc4ccc(C(F)(F)F)cc4)cc32)COC1 [Example 90]
- Inhibitory rate (%) of Na ion current: 15%

Structure (SMILES): C[C@]1(O)C[C@@H](n2cnc3ccc(Oc4ccc(C(F)(F)F)cn4)cc32)C1 [Example 121]
- inhibition at 10 µM (read-out: Inhibitory rate (%) of Na ion current): 21%
